The text below walks through data of patent US12310950B2, “Formulations of pyrrolopyridine-aniline compounds” (NFLECTION THERAPEUTICS, INC., priority 2021, dated 2025).

The conditions of data set [1]: systemic exposure; cited from earlier work.
For data set [2], the system named is p-ERK. Kind of data set: Ex vivo cutaneous neurofibroma explants (Example 20): p-ERK by immunohistochemistry. The format is cell-based, human. To be noted: 3 μl of gel formulation on explant; 0.1% or 0.5% by weight. As for the experimental part:
The study was conducted using a protocol similar to Example 16 with some modifications as described below.
Skin samples divided to smaller 3-4 mm pieces and placed dermal side down onto membranes. The edges of the samples were sealed with semisoft 3% agarose prepared in DMEMF-12 medium, and the apical surface was kept in contact with air to use formulations. The basal surface was in contact with the growth medium DMEMF-12 containing 10% human serum, Amphotericin B, Penicillin-Streptomycin and 1XB27. This set up enables testing of transdermal drug delivery while the tissues remain viable in the medium for the duration of the test. 3 μl of the test formulation was used.
Immunohistochemistry: Immunohistochemistry for p-ERK was performed using standard operating procedures and fully automated workflow.
3 μl of the test formulation was used.

Data set [3] deals with p-ERK. Kind of data set: Ex vivo human cutaneous neurofibroma explants (Example 16): p-ERK by Western Blot. The format is cell-based. To be noted: Compound 1.003 0.5% and 1.5%, topical on explant, 4 hours. The method, then:
Biopsies of cutaneous neurofibroma were taken from patients undergoing excision of neurofibromas for clinical purposes. The ex vivo human explant model was established by incubating sections of biopsies of human cutaneous neurofibroma. Cutaneous Neurofibroma samples were removed from patients, transferred immediately to the lab in 15 ml […] tubes containing 5 ml DMEM/F-12 medium (Thermo Fisher, Cat #11320033) supplemented with 1XB27 supplement (Gibco™ B-27™ Supplement (50×) serum free (Cat #17504044), 2.5 μg/ml of Amphotericin B (Thermo Fisher, Cat #15290018), and 50 units/ml of Penicillin-50 μg/ml of Streptomycin (Thermo Fisher, Cat #15070063), and 10% human serum (Gemini 100-110). Skin samples divided to smaller 3-4 mm pieces and placed dermal side down onto membranes (Transwell Permeable Supports, 12 well plate, Corning 12 mm Transwell® with 3.0 μm Pore Polycarbonate Membrane Insert, Sterile Corning #3402). The edges of the samples were sealed with semisoft 3% agarose (Sigma, CAS 9012-36-6) prepared in DMEMF-12 medium, and the apical surface was kept in contact with air to use formulations. […]
Western Blot analysis: Frozen skin samples were thawed on ice and weighed. […] The lysate protein concentration was determined by the BCA protein assay kit using bovine serum albumin (BSA) as standards. […]
Background: A western blot detects proteins with antibodies after separation by electrophoresis.

Data set [4] is described as follows: in vivo. To be noted: rat, po, 300 mg/kg/day.
Data set [5] is described as follows: UV-driven mouse model of cSCC: tolerability (skin, body weight). It counts as in vivo, Hairless SKH-1E mice. To be noted: topical 0.1%-2.3%, 30 days. As for the experimental part: (§1) A UV-driven mouse model was used to test if a topical formulation including Compound 1.003 could be used to reduce tumor burden in vivo. […] Once a mouse developed one tumor that measured 3 mm in diameter, they were randomly assigned to receive Vehicle, 0.1% Compound 1.003, 0.5% Compound 1.003, 1.0% Compound 1.003, or 2.3% Compound 1.003. Once enrolled, mice were treated with 200 uL of vehicle or the gel formulation of Compound 1.003. Drug was evenly applied to the back skin of the mouse and allowed to dry. Mice were treated for 30 days (5 d/week). […] Skin biopsies were obtained 4 hours after drug treatment at end of study.

Data set [6] relates to cSCC. Kind of data set: UV-driven mouse model of cSCC, chemoprevention study: number of tumors. The format is in vivo, Hairless SKH-1E mice. As for the experimental part: 136, no. 9, 2016, pp. 1920-1924 by Adelmann, C. H., et al., the entirety of which is incorporated herein by reference for all purposes. UV radiation was administered using a solar simulator (Oriel) metered at 12.5 kJ/m^2 UVB weekly, 3.4 SED for three months on Hairless SKH-1E mice.
Samples: The gel formulation (NA-1a) including Compound 1.003 in an amount of 0.1%, 0.5%, 1.0%, and 2.3% by weight of the formulation was used in the study.
as §1

Data set [7] deals with cSCC. The data set is described as follows: UV-driven mouse model of cSCC, split-mouse study: total tumor burden. The format is in vivo, Hairless SKH-1E mice. To be noted: split-control, 1.0% Compound 1.003 on one side, vehicle on the other, 30 days, n=5. As for the experimental part:
To internally control for potential systemic exposure, 5 mice were treated in split-control fashion with one side getting vehicle only and the other side of the same mouse receiving topical 1.0% Compound 1.003. Total tumor burden (summed volume) is quantified in untreated vs. treated sides at the beginning (black) as compared to the end of treatment 30 days later (n=5).
To definitively address the possibility of systemic exposure and non-local effects of topically applied Compound 1.003, 5 mice was treated in split-control fashion with one side with vehicle only and the other side with 1.0% Compound 1.003.

The subject of data set [8] is COLO 16. The data set is described as follows: CellTiter-Glo Luminescent Cell Viability Assay, SCC cells COLO 16. It counts as cell-based, human. To be noted: 72 hours, 0.01-30 μM, compared to NHEK.
Data set [9] has as its system ICI. Kind of data set: CellTiter-Glo Luminescent Cell Viability Assay, SCC cells ICI. To be noted: 72 hours, 0.01-30 μM, compared to NHEK. It counts as cell-based, human. A general note: ATP-based viability assays read luminescence as a measure of living cells.
In data set [10] the test system is p-ERK1/2. The data set is described as follows: UV-driven mouse model of cSCC: nano-immunoassay for p-ERK1/2 and total ERK1/2 in skin biopsies. The format is in vivo, Hairless SKH-1E mice. As for the experimental part: as §1
For data set [11], the system named is p-ERK. Kind of data set: Minipig non-GLP 28-day dermal tolerability study: p-ERK suppression in skin. The format is in vivo. To be noted: Compound 1.003 in gel formulation (NA-1a), 0.01% and 0.1%, 28 days. The method, then:
Non-GLP 28-Day Dermal Tolerability Study: 4 doses of A-D formulations applied to each of 4 pigs (2 females, 2 males), where A: vehicle (NA-1a without Compound 1.003) at 30 uL/cm^2; B: NA-1a-0.01% at 10 uL/cm^2; C: NA-1a-0.1% at 30 uL/cm^2; and D: NA-1a-0.1% at 10 uL/cm^2. Minipigs were treated […] for 28 days. Biopsy obtained 4 hours after last dose on Day 28.

Data set [12] deals with p-ERK. Kind of data set: p-ERK suppression in rat skin by oral administration. The format is in vivo. The method, then: p-ERK suppression in rat skin was evaluated by oral administration of Compound 1.003.
Data set [13] relates to phosphorylated-ERK1/2 (pERK). Kind of data set: Human cSCC explant: immunohistochemistry for p-ERK. It counts as cell-based. To be noted: 0.1% Compound 1.003 in NA-1a gel formulation on epidermal surface for 4 hours, vs vehicle.

SMILES strings stand for the structures. “Also recorded” adds a separate entry of the source.

Turning to `O=C(NOC[C@H](O)CO)c1ccc(F)c(F)c1Nc1ccc(I)cc1F` [PD0325901], in data set [1], the “side effects in clinical trials” value was “neurological side effects associated with ataxia, confusion, and syncope”.
With `O=C1CCCc2c1sc(Nc1ccc(I)cc1F)c2C(=O)NOCCO` [Compound 2.003], the “suppression of p-ERK by immunohistochemistry” value in data set [2] is on record as “Dose dependent suppression”.
The term Cmax denotes the highest concentration seen after dosing. For the compound `Cn1c(Nc2ccc(I)cc2F)c(C(=O)NOCCO)c2cccnc21` [Compound 1.003], the “suppression of p-ERK by Western Blot analysis” value in data set [3] was “complete suppression of p-ERK”. The compound also showed a Cmax in data set [4] of around 1360 ng/mL. The “suppression of p-ERK by immunohistochemistry” value in [2] is recorded as “Dose dependent suppression”. Moreover, in data set [5], the “skin peeling or erosions” value was “No skin peeling or erosions were observed” and the “weight loss (biweekly weight measurement)” value is given as “no weight loss”. For the same compound, the “number of tumors at the end of treatment, 0.1%” value in data set [6] (0.1% in gel (NA-1a), 30 days, n=10 mice, vehicle 60 tumors) came out at 31 tumors. The “number of tumors at the end of treatment, 0.5%” value in [6] (0.5% in gel (NA-1a), 30 days, n=10 mice, vehicle 60 tumors) worked out at 23 tumors. In addition, in data set [6] (1.0% dose and above, 30 days, n=10 per group), the “suppression of new tumors at 1.0% dose and above” value is reported as “near complete suppression of new tumors”. Moreover, in data set [6] (1.0% in gel (NA-1a), 30 days, n=10 mice, vehicle 60 tumors), the “number of tumors at the end of treatment, 1.0%” value turned out to be 13 tumors. In addition, in data set [6] (2.3% in gel (NA-1a), 200 uL, 30 days (5 d/week), n=10 mice, vehicle 60 tumors), the “number of tumors at the end of treatment, 2.3%” value is listed as 16 tumors. In addition, the “total tumors / new tumor formation (FIG. 5)” value in data set [6] (gel formulation (NA-1a), 0.1%-2.3%, 30 days) is “dramatically suppresses new tumor formation; also recorded: suppression of total tumors”. In addition, in [6] (highest doses of Compound 1.003, vs vehicle), the “decrease in the total number of tumors present at the end of treatment” value was “approximately 4 fold”. Moreover, in data set [7], the “total tumor volume / tumor burden on the treated side” value was “Substantial tumor regression and tumor suppression; also recorded: decreased to nearly undetectable levels”. Further, the “cell viability, COLO 16” value in [8] is recorded as “dose dependent reduction in cell viability”. The “cell viability, ICI” value in data set [9] is “dose dependent reduction in cell viability”. Moreover, the “p-ERK levels in skin biopsies (nano-immunoassay)” value in data set [10] (0.1% and greater vs vehicle, biopsies 4 hours after drug treatment at end of study) is given as “suppression of p-ERK levels”. Further, the “suppression of p-ERK levels in mouse skin (FIG. 6B, text)” value in data set [10] (concentrations 0.6 or greater (so in the source), in %) was at least 65. In addition, in data set [10] (mouse skin treated with Compound 1.003), the “suppression of p-ERK levels in mouse skin (FIG. 6B legend)” value is at least 65%. The “suppression of p-ERK in minipig skin (FIG. 1)” value in [11] is listed as “dose dependent suppression of p-ERK”. For the same compound, the “change of p-ERK after oral administration (FIG. 2)” value in [12] (rat skin, oral, various doses) was “no change of p-ERK”. Moreover, the “suppression of p-ERK in the skin” value in data set [12] (rat, 21-days of oral administration at 300 mg/kg/day) was “not observed”. In addition, the “suppression of p-ERK in human cSCC specimens (immunohistochemistry)” value in data set [13] is reported as “robust suppression of p-ERK”.
